Experiment [1] deals with T1, wild-type GrlAB protein (DNA topoisomerase IV) of S. aureus (Staphylococcus aureus, UniProt P0C1S7+P0C1U9).
T1 construct: made in house; host or cells: E. coli XL1-Blue (pXL2340 for GrlA, pXL2320 for GrlB; pRSETB vector, T7 promoter)
Nature of the experiment: Decatenation of kinetoplast DNA by purified wild-type GrlAB protein. Type of experiment: biochemical. How it is done: (§1) The ATP-dependent activity of decatenation of intertwined circular DNA molecules (catenanes) can be detected by carrying out the procedure, for example, in the following manner: a mixture of an extract of the E. coli strain XL1-blue pXL2320 (2.5 μg of proteins) and of an extract of the E. coli strain XL1-blue pXL2340 (2.5 μg of proteins) is incubated for 1 h at 37° C. in 40 μl of 50 mM Tris/HCl buffer pH 7.7 containing 1 mM ATP, 6 mM MgCl2, 200 mM glutamate, 10 mM DTT, 10 mM NaCl, 50 μg/ml of bovine serum albumin and 800 ng of kinetoplast DNA [consisting of a network of intertwined DNA molecules (catenanes) obtained from Crithidia fasciculata; TopoGene]. The reaction is stopped by adding 7 μl of a 250 mM EDTA solution (incubation 5 min at 37° C.), 5 μl of a 5% SDS and 2.5 mg/ml proteinase K mixture (incubation 30 min at 37° C.). The mixture is then analysed by electrophoresis on a 1% agarose gel in a 0.1 M Tris/borate buffer pH 8.3 containing 2 mM EDTA at 6 V/cm for 2 h 30 min. After staining the DNA with ethidium bromide (1 μg/ml), the DNA is quantified by scanning the negatives of photographs of the gels (Polaroid type 665 film) with the aid of a Bioimage 50S apparatus (Millipore). […] This activity is detected by the appearance of a DNA band with a size of about 2.5 kb and by the disappearance of the band of catenated DNA of very large size which penetrates very little into the gel during the electrophoretic run (FIG. 5).
(§2) To carry out the experiments described in the examples which follow, the incubations are carried out with the purified wild-type GrlAB proteins as described in Example 7, and with the mutant protein GrlA(Ser-80→Tyr)B as described in Example 8. The two wild-type and mutant GrlAB proteins are reconstituted by mixing equimolar quantities of their two GrlA and GrlB subunits.

The target in experiment [2] is T2, mutant protein GrlA(Ser-80→Tyr)B (DNA topoisomerase IV) of S. aureus (Staphylococcus aureus, UniProt P0C1S7+P0C1U9, F80Y).
T2 construct: made in house; host or cells: E. coli XL1-Blue (pXL2742 for GrlA Ser-80→Tyr, pXL2320 for GrlB)
As to the kind of experiment: biochemical. How it is done: as §1
(§3) The ATP-dependent activities of supercoiled DNA relaxation, on the one hand, and of decatenation of intertwined circular DNA molecules, on the other hand, are detected in this extract as described in Example 7, by incubating, in the same reaction mixture, an acellular extract of the E. coli strain XL1-Blue pXL2742 containing the protein GrlA(Ser-80→Tyr) and an extract of the E. coli strain XL1-Blue pXL2320 containing the GrlB protein.
as §2

Experiment [3] has as its system mutant protein GrlA(Ser-80→Tyr)B (DNA topoisomerase IV) of S. aureus. As to the kind of experiment: biochemical. On the set-up: species or system Staphylococcus aureus. The following applies: GrlA(Ser-80→Tyr)B versus wild-type GrlAB. On the procedure:
as §1, §3, §2

Broadly, the IC50 is the concentration needed to halve the response being measured. Higher therefore signals lower potency. As to `CC1COc2c(N3CCN(C)CC3)c(F)cc3c(=O)c(C(=O)O)cn1c23` (centres unmarked) [Ofloxacin], the IC50 in experiment [1] was 27.7 µM; in experiment [2] it was 692 µM.

In the case of `O=C(O)c1cn(C2CC2)c2cc(N3CCNCC3)c(F)cc2c1=O` [ciprofloxacin], the “concentration above which the activity of decatenation of kinetoplast DNA is completely inhibited” value in experiment [1] (purified wild-type GrlAB enzyme) was over 10 µg/mL.

For the compound `CO[C@@H]1[C@@H](OC(N)=O)[C@@H](O)[C@H](Oc2ccc3c(O)c(NC(=O)c4ccc(O)c(CC=C(C)C)c4)c(=O)oc3c2C)OC1(C)C` [novobiocin], the IC50 in experiment [1] and in experiment [2] was about 49 µM throughout.

Turning to `C[C@@H]1CN(c2c(F)c(N)c3c(=O)c(C(=O)O)cn(C4CC4)c3c2F)C[C@H](C)N1` [sparfloxacin], the IC50 in experiment [1] is 15.3 µM; in experiment [2] it was 1270 µM. In addition, in experiment [3], the “concentration for 50% inhibition with mutant enzyme relative to wild-type enzyme” value is 80 times.

The values are drawn from patent US6649394B1, “Topoisomerase IV, corresponding nucleotide sequences and uses thereof” (priority 1997, dated 2003).
